Test results taken from US11028072B2, “2,4-diamino-6-ethylpyrimidine derivatives with antimalarial activities against Plasmodium falciparum” (National Science and Technology Development Agency, priority 2015, dated 2021).
Where two headings read alike, the source gives them in different places.

Experiments:
wild type (WT) pfDHFR = wild type (WT) pfDHFR (Plasmodium falciparum, UniProt P13922, N108S/R59C); assay: Inhibition of wild type pfDHFR (Ki); type: biochemical
Experimental: (§1) The synthesized 2,4-diamino-6-ethylpyrimdine derivatives as the hydrochloride salts were tested for the activities against Plasmodium falciparum (P. falciparum) according to the standard methods. These include the inhibition of dihydrofolate reductase (DHFR) enzymes of P. falciparum including, wild type (WT) and quadruple mutants (N51IC59RS108NI164L) (QM). The inhibition was expressed as inhibition constants (Ki) in nano molar (nM).

in vitro = settings: African green monkey
From the text: (§2) In Vitro Antimalarial Activites Against P. falciparum and Cytotoxicity Towards Mammalian Cells (Vero Cells)

[1] = molecular target: quadruple mutant N51I + C59R + S108N + I164L (QM) pfDHFR (Plasmodium falciparum, UniProt P13922, I164L/N51I); assay: Inhibition of quadruple mutant pfDHFR (Ki); type: biochemical
Experimental: as §1

[2] = molecular target: T1, Human dihydrofolate reductase (hDHFR) (Homo sapiens, UniProt P00374); assay: Inhibition of human dihydrofolate reductase (Ki); type: biochemical; settings: human DHFR; hydrochloride salts
T1 sequence (P00374 1-187): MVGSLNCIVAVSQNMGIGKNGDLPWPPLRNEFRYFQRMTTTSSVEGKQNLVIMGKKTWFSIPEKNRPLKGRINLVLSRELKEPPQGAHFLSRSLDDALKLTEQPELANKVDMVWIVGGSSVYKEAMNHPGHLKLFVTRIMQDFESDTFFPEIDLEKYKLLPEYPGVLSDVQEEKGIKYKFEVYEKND

[3] = test system: P. falciparum V1/S (N51I + C59R + S108 + I164L); assay: microbe, parasite or virus in culture; type: cell-based, Plasmodium falciparum; settings: Plasmodium falciparum, read-out: IC50 P. falciparum V1/S
From the text: as §2

[4] = test system: P. falciparum TM4/8.2 (wild type); assay: microbe, parasite or virus in culture; type: cell-based, Plasmodium falciparum; settings: Plasmodium falciparum, read-out: IC50 P. falciparum TM4/8.2 (WT)
From the text: as §2

[5] = in vitro, quadruple mutant strain V1/S
[6] = in vitro, wild-type strain TM4/8.2

Chain of quadruple mutant N51I + C59R + S108N + I164L (QM) pfDHFR (P13922 whole entry N51I/I164L): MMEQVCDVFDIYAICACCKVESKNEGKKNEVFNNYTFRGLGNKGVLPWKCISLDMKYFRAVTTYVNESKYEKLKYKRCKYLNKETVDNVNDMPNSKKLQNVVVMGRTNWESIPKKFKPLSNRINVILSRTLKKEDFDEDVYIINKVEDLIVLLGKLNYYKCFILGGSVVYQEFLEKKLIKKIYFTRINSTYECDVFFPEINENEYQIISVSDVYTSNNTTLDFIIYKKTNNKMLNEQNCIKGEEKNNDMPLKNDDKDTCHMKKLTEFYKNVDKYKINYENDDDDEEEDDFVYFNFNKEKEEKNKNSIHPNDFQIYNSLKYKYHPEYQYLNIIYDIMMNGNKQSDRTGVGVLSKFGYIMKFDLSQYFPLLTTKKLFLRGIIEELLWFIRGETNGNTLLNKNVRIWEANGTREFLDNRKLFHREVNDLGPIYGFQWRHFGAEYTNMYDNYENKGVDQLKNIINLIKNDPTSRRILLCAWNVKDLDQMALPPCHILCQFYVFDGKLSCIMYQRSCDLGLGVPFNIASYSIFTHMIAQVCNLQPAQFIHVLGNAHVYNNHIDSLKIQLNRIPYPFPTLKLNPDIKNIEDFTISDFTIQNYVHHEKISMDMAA
Chain of wild type (WT) pfDHFR (P13922 whole entry R59C/N108S): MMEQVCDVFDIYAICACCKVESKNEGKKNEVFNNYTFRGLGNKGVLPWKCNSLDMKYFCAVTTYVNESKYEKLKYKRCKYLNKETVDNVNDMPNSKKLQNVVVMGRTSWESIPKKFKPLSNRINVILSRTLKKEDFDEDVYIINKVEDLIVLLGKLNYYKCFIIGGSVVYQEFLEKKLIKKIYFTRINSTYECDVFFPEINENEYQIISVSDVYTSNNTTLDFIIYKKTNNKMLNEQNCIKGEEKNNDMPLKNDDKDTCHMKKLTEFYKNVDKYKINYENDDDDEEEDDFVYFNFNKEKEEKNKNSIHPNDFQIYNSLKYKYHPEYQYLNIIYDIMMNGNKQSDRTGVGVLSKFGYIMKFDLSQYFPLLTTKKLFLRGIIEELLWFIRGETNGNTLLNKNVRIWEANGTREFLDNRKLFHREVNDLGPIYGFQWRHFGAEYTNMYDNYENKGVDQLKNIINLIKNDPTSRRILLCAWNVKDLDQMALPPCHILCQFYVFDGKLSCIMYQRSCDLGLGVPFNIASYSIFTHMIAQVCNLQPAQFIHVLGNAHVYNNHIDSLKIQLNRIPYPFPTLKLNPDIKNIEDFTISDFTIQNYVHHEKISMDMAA

| SMILES | Ki (wild type (WT) pfDHFR) [µM] | IC50 (in vitro) [µM] | Ki [1] [µM] | Ki hDHFR [2] | IC50 [3, 5] [µM] | IC50 [4, 6] [µM] | Ki [2] [µM] | IC50 [3] [µM] | IC50 [4] [µM] |
| --- | --- | --- | --- | --- | --- | --- | --- | --- | --- |
| CCc1nc(N)nc(N)c1OCc1cn(-c2ccccc2)nn1 [Compound 13] | 0.00327 ± 0.00028 | > 25 | 0.377 ± 0.0205 | High | > 25 | 5.73 ± 0.35 |  |  |  |
| CCc1nc(N)nc(N)c1OCc1cc(-c2ccc([N+](=O)[O-])cc2)no1 [Compound 43] | 0.00402 ± 0.00057 | > 50 | 0.306 ± 0.0365 |  | > 50 | 33.2 ± 14.2 | > 100 |  |  |
| CCc1nc(N)nc(N)c1OCc1coc(-c2ccccc2)n1 [Compound 50] | 0.00133 ± 7e-05 | > 50 | 0.0556 ± 0.00879 |  | 13.7 ± 4.08 | 2.25 ± 0.71 | 0.292 ± 0.0222 |  |  |
| CCc1nc(N)nc(N)c1OCCc1cn(Cc2ccc(O)cc2)nn1 [Compound 30] | 0.00886 ± 0.0008 | > 50 | 0.756 ± 0.0626 | High | > 50 | 12.4 ± 4.71 |  |  |  |
| CCc1nc(N)nc(N)c1OCc1cc(-c2cccc(C(=O)O)c2)no1 [Compound 40] | 0.00128 ± 0.00013 | > 50 | 0.00212 ± 0.00017 |  | 3.38 ± 1.06 | 0.28 ± 0.13 | 0.279 ± 0.0247 |  |  |
| CCc1nc(N)nc(N)c1OCc1csc(-c2ccc(OCC(=O)O)cc2)n1 [Compound 73] | 0.00065 ± 0.00014 | > 50 | 0.0289 ± 0.00256 |  | > 50 | 0.041 ± 0.006 | 0.357 ± 0.0344 |  |  |
| CCc1nc(N)nc(N)c1OCc1coc(-c2ccc(OCC(=O)O)cc2)n1 [Compound 57] | 0.00084 ± 8e-05 | > 50 | 0.078 ± 0.00644 |  | > 50 | 0.73 ± 0.17 | 0.716 ± 0.0783 |  |  |
| CCc1nc(N)nc(N)c1OCc1cc(-c2cccc([N+](=O)[O-])c2)no1 [Compound 39] | 0.00133 ± 0.00017 | > 50 | 0.049 ± 0.00673 |  | 9.08 ± 1.05 | 1.16 ± 0.55 | > 100 |  |  |
| CCc1nc(N)nc(N)c1-c1cn(CCCOc2ccc(Cl)cc2)nn1 [Compound 11] | 0.00112 ± 8e-05 | 48.7 ± 13.6 | 0.0321 ± 0.00831 |  | > 50 | 2.42 ± 0.55 | 1.12 ± 0.0914 |  |  |
| CCc1nc(N)nc(N)c1OCc1cc(-c2ccc(C(=O)O)cc2)no1 [Compound 44] | 0.00375 ± 0.00031 | > 10 | 0.245 ± 0.0346 |  | > 10 | 7.77 ± 1.47 | > 100 |  |  |
| CCc1nc(N)nc(N)c1OCc1csc(-c2ccccc2)n1 [Compound 60] | 0.00102 ± 0.00014 | > 50 | 0.0388 ± 0.00558 |  | 20.8 ± 1.86 | 1.2 ± 0.38 | 0.276 ± 0.0167 |  |  |
| CCc1nc(N)nc(N)c1-c1cn(CCCc2ccccc2)nn1 [Compound 8] | 0.00282 ± 0.0001 | > 50 | 0.0498 ± 0.00189 |  |  |  | 3.68 ± 0.48 | 32.3 ± 3.06 | 5.58 ± 0.67 |
| CCc1nc(N)nc(N)c1OCc1csc(-c2cccc(C)c2)n1 [Compound 61] | 0.00034 ± 5e-05 | 31.3 ± 7.75 | 0.0377 ± 0.00304 |  | 18 ± 7.77 | 0.84 ± 0.1 | 0.1315 ± 0.00088 |  |  |
| CCc1nc(N)nc(N)c1OCc1coc(-c2ccc(OCC(=O)OCc3ccccc3)cc2)n1 [Compound 56] | 0.00081 ± 7e-05 | > 100 | 0.0467 ± 0.00468 |  | 23.3 ± 2.47 | 0.58 ± 0.22 | > 100 |  |  |
| CCc1nc(N)nc(N)c1OCc1cn(Cc2cc(F)c(O)c(F)c2)nn1 [Compound 27] | 0.00941 ± 0.00085 | > 50 | 0.285 ± 0.0141 | High | > 50 | 16.1 ± 6.02 |  |  |  |
| CCc1nc(N)nc(N)c1OCc1cc(-c2ccc(Cl)cc2)no1 [Compound 35] | 0.00095 ± 2e-05 | > 25 | 0.065 ± 0.0119 |  |  |  | 1.17 ± 0.13 | 20.9 ± 4.08 | 2.5 ± 0.34 |
| CCc1nc(N)nc(N)c1OCCc1coc(-c2ccccc2)n1 [Compound 58] | 0.00055 ± 2e-05 | 5.59 ± 1.84 | 0.00463 ± 0.00022 |  |  |  | 0.0204 ± 0.0021 | 53.1 ± 15.2 | 0.048 ± 0.021 |
| CCc1nc(N)nc(N)c1OCc1coc(-c2cccc(C)c2)n1 [Compound 51] | 0.00044 ± 5e-05 | 75.9 ± 11 | 0.048 ± 0.00154 |  | 21.9 ± 5.88 | 0.83 ± 0.05 | 0.256 ± 0.00925 |  |  |
